In US7935687B2, “Methods for treating spinal muscular atrophy using tetracycline compounds” (Paratek Pharmaceuticals, Inc., priority 2007, dated 2011):
Read-outs that look alike come from different tables or passages of the source.

Experiments:
S. aureus (SA RN450) = assay: Antibacterial MIC, gram positive; assay type: cell-based
E. coli (EC D1-209) = assay: Antibacterial MIC, gram negative; assay type: cell-based
[1] = CLSI methodology, 35° C., 18-24 hours

| Compound | MIC Gram Positive (SA RN450) (S. aureus (SA RN450); [1]) | MIC Gram Negative (EC D1-209) (E. coli (EC D1-209); [1]) | further results |
| --- | --- | --- | --- |
| CN(C)CC(=O)Nc1ccc(-c2ccc(O)c3c2CC2CC4C(N(C)C)C(O)=C(C(N)=O)C(=O)C4(O)C(O)=C2C3=O)cc1 (centres unmarked) [BC] | *** (Good antibacterial activity (e.g., less than about 4 μg/mL)) | *** (Good antibacterial activity (e.g., less than about 4 μg/mL)) | – |
| COCCNCc1ccc(-c2ccc(O)c3c2CC2CC4C(N(C)C)C(O)=C(C(N)=O)C(=O)C4(O)C(O)=C2C3=O)cc1 (centres unmarked) [BG] | *** (Good antibacterial activity (e.g., less than about 4 μg/mL)) | *** (Good antibacterial activity (e.g., less than about 4 μg/mL)) | – |
| CN(C)Cc1ccc(-c2ccc(O)c3c2CC2CC4C(N(C)C)C(O)=C(C(N)=O)C(=O)C4(O)C(O)=C2C3=O)[nH]1 (centres unmarked) [BK] | *** (Good antibacterial activity (e.g., less than about 4 μg/mL)) | * (weak antibacterial activity (greater than about 8 μg/mL)) | – |
| CN(CCOC(C)(C)C)Cc1cccc(-c2ccc(O)c3c2CC2CC4C(N(C)C)C(O)=C(C(N)=O)C(=O)C4(O)C(O)=C2C3=O)c1 (centres unmarked) [BM] | *** (Good antibacterial activity (e.g., less than about 4 μg/mL)) | ** (modest antibacterial activity (between about 4 and 8 μg/mL)) | – |
| CN(C)C1C(O)=C(C(N)=O)C(=O)C2(O)C(O)=C3C(=O)c4c(O)ccc(C(=O)CNCC(C)(C)C)c4CC3CC12 (centres unmarked) [BP] | *** (Good antibacterial activity (e.g., less than about 4 μg/mL)) | * (weak antibacterial activity (greater than about 8 μg/mL)) | – |
| CCOC(=O)N1CCN(CC(=O)c2ccc(O)c3c2CC2CC4C(N(C)C)C(O)=C(C(N)=O)C(=O)C4(O)C(O)=C2C3=O)CC1 (centres unmarked) [BR] | *** (Good antibacterial activity (e.g., less than about 4 μg/mL)) | * (weak antibacterial activity (greater than about 8 μg/mL)) | – |
| CN(C)C1C(O)=C(C(N)=O)C(=O)C2(O)C(O)=C3C(=O)c4c(O)ccc(C(=O)CNCC(F)(F)F)c4CC3CC12 (centres unmarked) [BT] | *** (Good antibacterial activity (e.g., less than about 4 μg/mL)) | * (weak antibacterial activity (greater than about 8 μg/mL)) | – |
| CN(C)C1C(O)=C(C(N)=O)C(=O)C2(O)C(O)=C3C(=O)c4c(O)ccc(C(=O)CN5CCN(C6CCCCC6)CC5)c4CC3CC12 (centres unmarked) [BU] | *** (Good antibacterial activity (e.g., less than about 4 μg/mL)) | *** (Good antibacterial activity (e.g., less than about 4 μg/mL)) | – |
| C=CCNCC(=O)c1ccc(O)c2c1CC1CC3C(N(C)C)C(O)=C(C(N)=O)C(=O)C3(O)C(O)=C1C2=O (centres unmarked) [BV] | *** (Good antibacterial activity (e.g., less than about 4 μg/mL)) | * (weak antibacterial activity (greater than about 8 μg/mL)) | – |
| COCC(=O)c1ccc(O)c2c1CC1CC3C(N(C)C)C(O)=C(C(N)=O)C(=O)C3(O)C(O)=C1C2=O (centres unmarked) [BW] | *** (Good antibacterial activity (e.g., less than about 4 μg/mL)) | * (weak antibacterial activity (greater than about 8 μg/mL)) | – |
| CN(C)C1C(O)=C(C(N)=O)C(=O)C2(O)C(O)=C3C(=O)c4c(O)ccc(C(=O)CNCc5ccccn5)c4CC3CC12 (centres unmarked) [BY] | *** (Good antibacterial activity (e.g., less than about 4 μg/mL)) | * (weak antibacterial activity (greater than about 8 μg/mL)) | – |
| CN(C)C1C(O)=C(C(N)=O)C(=O)C2(O)C(O)=C3C(=O)c4c(O)ccc(C(=O)CNCC(N)=O)c4CC3CC12 (centres unmarked) [BZ] | – | – | MIC Gram Positive (SA RN450) (S. aureus (SA RN450)): ** (key: ***: Good antibacterial activity (e.g., less than about 4 μg/mL); **: modest antibacterial activity (between about 4 and 8 μg/mL); *: weak antibacterial activity (greater than about 8 μg/mL)); MIC Gram Negative (EC D1-209) (E. coli (EC D1-209)): * (key: ***: Good antibacterial activity (e.g., less than about 4 μg/mL); **: modest antibacterial activity (between about 4 and 8 μg/mL); *: weak antibacterial activity (greater than about 8 μg/mL)) |
| COC(C)CNCC(=O)c1ccc(O)c2c1CC1CC3C(N(C)C)C(O)=C(C(N)=O)C(=O)C3(O)C(O)=C1C2=O (centres unmarked) [CA] | *** (Good antibacterial activity (e.g., less than about 4 μg/mL)) | * (weak antibacterial activity (greater than about 8 μg/mL)) | – |
| CN(C)c1cc(-c2cccc(C(N)=O)c2)c(O)c2c1CC1CC3C(N(C)C)C(O)=C(C(N)=O)C(=O)C3(O)C(O)=C1C2=O (centres unmarked) [CD] | ** (modest antibacterial activity (between about 4 and 8 μg/mL)) | * (weak antibacterial activity (greater than about 8 μg/mL)) | – |
| CN(C)C1C(O)=C(C(N)=O)C(=O)C2(O)C(O)=C3C(=O)c4c(O)ccc(C(=O)Cn5ccnc5)c4CC3CC12 (centres unmarked) [CF] | ** (modest antibacterial activity (between about 4 and 8 μg/mL)) | * (weak antibacterial activity (greater than about 8 μg/mL)) | – |
| CC1=NCCN1CC(=O)c1ccc(O)c2c1CC1CC3C(N(C)C)C(O)=C(C(N)=O)C(=O)C3(O)C(O)=C1C2=O (centres unmarked) [CH] | ** (modest antibacterial activity (between about 4 and 8 μg/mL)) | * (weak antibacterial activity (greater than about 8 μg/mL)) | – |
| CN(C)CC(=O)N1CC=C(c2ccc(O)c3c2CC2CC4C(N(C)C)C(O)=C(C(N)=O)C(=O)C4(O)C(O)=C2C3=O)CC1 (centres unmarked) [Compound AL] | *** (Good antibacterial activity (e.g., less than about 4 μg/mL)) | * (weak antibacterial activity (greater than about 8 μg/mL)) | – |
| CN(C)CCc1ccc(O)c2c1CC1CC3C(N(C)C)C(O)=C(C(N)=O)C(=O)C3(O)C(O)=C1C2=O (centres unmarked) [Compound BD] | *** (Good antibacterial activity (e.g., less than about 4 μg/mL)) | * (weak antibacterial activity (greater than about 8 μg/mL)) | – |
| CN(C)CCC(=NOC(C)(C)C)c1ccc(O)c2c1CC1CC3C(N(C)C)C(O)=C(C(N)=O)C(=O)C3(O)C(O)=C1C2=O (centres unmarked) [Compound CJ] | *** (Good antibacterial activity (e.g., less than about 4 μg/mL)) | * (weak antibacterial activity (greater than about 8 μg/mL)) | – |
| CN1CCN(C(=O)c2cccc(-c3ccc(O)c4c3CC3CC5C(N(C)C)C(O)=C(C(N)=O)C(=O)C5(O)C(O)=C3C4=O)c2)CC1 (centres unmarked) [Compound C] | *** (Good antibacterial activity (e.g., less than about 4 μg/mL)) | * (weak antibacterial activity (greater than about 8 μg/mL)) | – |
| CN(C)CCNC(=O)c1cccc(-c2cc(N(C)C)c3c(c2O)C(=O)C2=C(O)[C@]4(O)C(=O)C(C(N)=O)=C(O)[C@@H](N(C)C)[C@@H]4C[C@@H]2C3)c1 [Compound V, (4S,4aS,5aR,12aS)-4,7-Bis-dimethylamino-9-[3-(2-dimethylamino-ethylcarbamoyl)-phenyl]-3,10,12,12a-tetrahydroxy-1,11-dioxo-1,4,4a,5,5a,6,11,12a-octahydro-naphthacene-2-carboxylic Acid Amide] | – | – | MIC (S. aureus (SA RN450); Staphylococcus aureus, CLSI methodology, 35° C., 18-24 hours): > 8 µg/mL; MIC (E. coli (EC D1-209); Escherichia coli, CLSI methodology, 35° C., 18-24 hours): > 8 µg/mL |
| CN(C)CCCNC(=O)c1cccc(-c2cc(N(C)C)c3c(c2O)C(=O)C2=C(O)[C@]4(O)C(=O)C(C(N)=O)=C(O)[C@@H](N(C)C)[C@@H]4C[C@@H]2C3)c1 [Compound X] | * (weak antibacterial activity (greater than about 8 μg/mL)) | * (weak antibacterial activity (greater than about 8 μg/mL)) | – |
